# Measurements published in patent US6667040B2, “Bovine footrot treatment and prevention” (University Technologies International, Inc., priority 1997, dated 2003).
# Assays:
# Type in all cases: cell-based
# [1] = system: Prevotella intermedia (5-2); assay: Penicillin G disc diffusion susceptibility test; conditions: with regrowth
# [2] = system: Bacteroides fragilis (7-6); assay: Penicillin G disc diffusion susceptibility test
# [3] = system: Prevotella intermedia (8-2); assay: Penicillin G disc diffusion susceptibility test; conditions: with regrowth
# [4] = system: Prevotella intermedia (14-7); assay: Penicillin G disc diffusion susceptibility test
# [5] = system: Isolates of Porphyromonas levii; assay: Penicillin G susceptibility of Porphyromonas levii isolates
# [6] = disc with 10 units penicillin G
smiles,measurement,setting,value
CC1(C)S[C@@H]2[C@H](NC(=O)Cc3ccccc3)C(=O)N2[C@H]1C(=O)O [penicillin G],P2 zone of inhibition,[1]; disc with 2 units penicillin G,22 mm
same,P10 zone of inhibition,[1]; [6],28 (with regrowth) mm
same,susceptibility to penicillin,[2]; disc diffusion,clearly resistant
same,P2 zone of inhibition,[2]; disc with 2 units penicillin G,0 mm
same,P10 zone of inhibition,[2]; [6],0 mm
same,P2 zone of inhibition,[3]; disc with 2 units penicillin G,27 mm
same,P10 zone of inhibition,[3]; [6],35 (with regrowth) mm
same,P2 zone of inhibition,[4]; disc with 2 units penicillin G,34 (with mm
same,regrowth within P2 zone of inhibition,"[4]; disc with 2 units penicillin G, regrowth around the disc",22 mm regrowth)
same,P10 zone of inhibition,[4]; [6],38 mm
same,regrowth within P10 zone of inhibition,"[4]; disc with 10 units penicillin G, regrowth around the disc",23 mm
same,susceptibility to penicillin G,[5],sensitive
